Data on 22 compounds can be found in patent publication US20260209193A1, “NOVEL INHIBITORS OF DNA DAMAGE RESPONSES FOR CANCER THERAPY” (The Regents of the University of California, priority 2022, published 2026).

T1 sequence (P09874 whole entry, species assumed): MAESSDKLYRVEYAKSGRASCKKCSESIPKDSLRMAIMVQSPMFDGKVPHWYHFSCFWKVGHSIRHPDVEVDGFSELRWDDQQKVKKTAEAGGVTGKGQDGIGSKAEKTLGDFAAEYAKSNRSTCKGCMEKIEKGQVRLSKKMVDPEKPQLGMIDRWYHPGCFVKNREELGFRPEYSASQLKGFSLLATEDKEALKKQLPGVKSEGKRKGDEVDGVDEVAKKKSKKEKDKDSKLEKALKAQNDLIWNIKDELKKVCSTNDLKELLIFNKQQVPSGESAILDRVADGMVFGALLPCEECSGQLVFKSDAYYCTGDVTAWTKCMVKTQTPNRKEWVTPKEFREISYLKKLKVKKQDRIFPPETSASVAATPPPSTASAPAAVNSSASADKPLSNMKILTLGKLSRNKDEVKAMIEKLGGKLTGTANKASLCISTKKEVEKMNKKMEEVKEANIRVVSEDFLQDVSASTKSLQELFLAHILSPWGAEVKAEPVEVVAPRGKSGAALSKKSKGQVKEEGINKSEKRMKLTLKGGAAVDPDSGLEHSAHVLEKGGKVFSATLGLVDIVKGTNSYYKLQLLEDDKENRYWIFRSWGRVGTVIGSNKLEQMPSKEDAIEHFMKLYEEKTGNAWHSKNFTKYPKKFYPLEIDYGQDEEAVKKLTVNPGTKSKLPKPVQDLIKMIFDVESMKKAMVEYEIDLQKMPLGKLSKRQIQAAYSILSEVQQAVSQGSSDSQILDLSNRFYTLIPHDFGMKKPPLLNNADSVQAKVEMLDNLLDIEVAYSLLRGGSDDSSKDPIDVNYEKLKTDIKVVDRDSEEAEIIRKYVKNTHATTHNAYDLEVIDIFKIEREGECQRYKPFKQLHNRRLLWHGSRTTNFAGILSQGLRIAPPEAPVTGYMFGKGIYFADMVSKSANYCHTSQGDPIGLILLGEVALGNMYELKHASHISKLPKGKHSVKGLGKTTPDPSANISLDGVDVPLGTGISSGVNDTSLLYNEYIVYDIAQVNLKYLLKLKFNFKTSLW

One test concerns the target T1, PARP1 (Homo sapiens, UniProt P09874).
T1 construct: endogenous in cells; host or cells: PC3
The test is described as follows: PARP1 trapping, chromatin fractionation (chromatin-bound fraction). The class given is cell-based. Conditions: 0.3 μM; PC3 cells. The text has this:
The trapped PARP1 forms a toxic lesion and stalls the progress of replication forks. The replication fork collapses in BRCA1/2-deficient cancer cells, and then results in cell death. […] Six cancer cell lines were used in this assay, including two breast cancer cell lines, BRCA1-mutunt SUM149PT-BRCA1mut and SUM149PT-BRCA1rev where deleterious BRCA1 mutation is reverted to form a functional BRCA1, two ovarian cancer cell lines, BRCA1-null UWB1.289 and UWB1.289+BRCA1, a stable cell line in which wild-type BRCA1 function has been restored, and two prostate cancer cell lines, enzalutamide resistant C4-2B/MR which is homologous recombination (HR)-deficient due to Rad51 mutation, and enzalutamide insensitive PC3 which is HR-proficient.
Consider `O=C(CN1CCCC1=O)Nc1ccc(C(=O)NC2C/C(=C\c3ccc(F)c(F)c3)C(=O)/C(=C/c3ccc(F)c(F)c3)C2)cc1` (stereo not shown) [JCS048, N-(3,5-bis((E)-3,4-difluorobenzylidene)-4-oxocyclohexyl)-4-(2-(2-oxopyrrolidin-1-yl)acetamido)benzamide], for which the “PARP1 trapped on DNA lesions” value is reported as “trapped”.
As to `O=C1/C(=C/c2ccc(F)c(F)c2)CC(NC(=O)c2ccc(NC(=O)N3CCCCC3)cc2)C/C1=C\c1ccc(F)c(F)c1` (stereo not shown) [JCS053, N-(4-((3,5-bis((E)-3,4-difluorobenzylidene)-4-oxocyclohexyl)carbamoyl)phenyl)piperidine-1-carboxamide], the “PARP1 trapped on DNA lesions” value is “trapped”.

Still in this test, the particulars now being: 0.5 μM and 2 μM; PC3 cells.
On to `CCOCCOc1ccc(C(=O)NC2C/C(=C\c3ccc(F)c(F)c3)C(=O)/C(=C/c3ccc(F)c(F)c3)C2)cc1` (stereo not shown) [JCS010, N-(3,5-Bis((E)-3,4-difluorobenzylidene)-4-oxocyclohexyl)-4-(2-ethoxyethoxy)benzamide], for which the “PARP1 trapped on DNA lesions” value is listed as “trapped”.

The test is the same for the next values; noted with them: 0.5 μM; PC3 cells.
For the compound `COCCNCCOc1ccc(C(=O)NC2C/C(=C\c3ccc(F)c(F)c3)C(=O)/C(=C/c3ccc(F)c(F)c3)C2)cc1` (stereo not shown) [JCS031, N-(3,5-Bis((E)-3,4-difluorobenzylidene)-4-oxocyclohexyl)-4-(2-((2-methoxyethyl)amino)ethoxy)-benzamide], the “PARP1 trapped on DNA lesions” value was “trapped”.
The same measure, in the same setting: to `COCCCNCCOc1ccc(C(=O)NC2C/C(=C\c3ccc(F)c(F)c3)C(=O)/C(=C/c3ccc(F)c(F)c3)C2)cc1` (stereo not shown) [JCS030, N-(3,5-Bis((E)-3,4-difluorobenzylidene)-4-oxocyclohexyl)-4-(2-((3-methoxypropyl)amino)ethoxy)-benzamide] belongs “trapped”; to `C=CCN(CC=C)CCOc1ccc(C(=O)NC2C/C(=C\c3ccc(F)c(F)c3)C(=O)/C(=C/c3ccc(F)c(F)c3)C2)cc1` (stereo not shown) [JCS037, N-(3,5-Bis((E)-3,4-difluorobenzylidene)-4-oxocyclohexyl)-4-(2-(diallylamino)ethoxy)benzamide], “trapped”.

The test is the same for the next values; noted with them: PC3 cells.
Consider `CCN(CC)CCOc1ccc(C(=O)NC2C/C(=C\c3ccc(F)cc3)C(=O)/C(=C/c3ccc(F)cc3)C2)cc1` (stereo not shown) [JCS149, N-(3,5-Bis((E)-4-fluorobenzylidene)-4-oxocyclohexyl)-4-(2-(diethylamino)ethoxy)benzamide], for which the “PARP1-trapping potency relative to JC099 (PARP1 in the chromatin-bound fraction)” value is “their potencies were less than JC099”.
Same read-out and setting: the same measure for `CCN(CC)CCOc1cccc(C(=O)NC2C/C(=C\c3ccc(F)c(F)c3)C(=O)/C(=C/c3ccc(F)c(F)c3)C2)c1` (stereo not shown) [JCS099, N-(3,5-Bis((E)-3,4-difluorobenzylidene)-4-oxocyclohexyl)-3-(2-(diethylamino)ethoxy)benzamide]: “higher potency in PARP1-trapping”; for `O=C(CN1CCCC1=O)Nc1ccc(C(=O)NC2C/C(=C\c3ccc(F)c(F)c3)C(=O)/C(=C/c3ccc(F)c(F)c3)C2)cc1` (stereo not shown) [JCS048, N-(3,5-bis((E)-3,4-difluorobenzylidene)-4-oxocyclohexyl)-4-(2-(2-oxopyrrolidin-1-yl)acetamido)benzamide]: “higher potency in PARP1-trapping”.
As to `O=C1/C(=C/c2ccc(F)c(F)c2)CC(NC(=O)c2ccc(NC(=O)N3CCCCC3)cc2)C/C1=C\c1ccc(F)c(F)c1` (stereo not shown) [JCS053, N-(4-((3,5-bis((E)-3,4-difluorobenzylidene)-4-oxocyclohexyl)carbamoyl)phenyl)piperidine-1-carboxamide], the “PARP1-trapping potency relative to JC099 (PARP1 in the chromatin-bound fraction)” value was “higher potency in PARP1-trapping”.

The target in the next test is T2, ATR (Homo sapiens, UniProt Q13535).
T2 construct: endogenous in cells; host or cells: PC3, C4-2B/MR, SUM149PT-BRCA1rev, UWB1.289+BRCA1, MDA-MB-231
T2 sequence (Q13535 whole entry): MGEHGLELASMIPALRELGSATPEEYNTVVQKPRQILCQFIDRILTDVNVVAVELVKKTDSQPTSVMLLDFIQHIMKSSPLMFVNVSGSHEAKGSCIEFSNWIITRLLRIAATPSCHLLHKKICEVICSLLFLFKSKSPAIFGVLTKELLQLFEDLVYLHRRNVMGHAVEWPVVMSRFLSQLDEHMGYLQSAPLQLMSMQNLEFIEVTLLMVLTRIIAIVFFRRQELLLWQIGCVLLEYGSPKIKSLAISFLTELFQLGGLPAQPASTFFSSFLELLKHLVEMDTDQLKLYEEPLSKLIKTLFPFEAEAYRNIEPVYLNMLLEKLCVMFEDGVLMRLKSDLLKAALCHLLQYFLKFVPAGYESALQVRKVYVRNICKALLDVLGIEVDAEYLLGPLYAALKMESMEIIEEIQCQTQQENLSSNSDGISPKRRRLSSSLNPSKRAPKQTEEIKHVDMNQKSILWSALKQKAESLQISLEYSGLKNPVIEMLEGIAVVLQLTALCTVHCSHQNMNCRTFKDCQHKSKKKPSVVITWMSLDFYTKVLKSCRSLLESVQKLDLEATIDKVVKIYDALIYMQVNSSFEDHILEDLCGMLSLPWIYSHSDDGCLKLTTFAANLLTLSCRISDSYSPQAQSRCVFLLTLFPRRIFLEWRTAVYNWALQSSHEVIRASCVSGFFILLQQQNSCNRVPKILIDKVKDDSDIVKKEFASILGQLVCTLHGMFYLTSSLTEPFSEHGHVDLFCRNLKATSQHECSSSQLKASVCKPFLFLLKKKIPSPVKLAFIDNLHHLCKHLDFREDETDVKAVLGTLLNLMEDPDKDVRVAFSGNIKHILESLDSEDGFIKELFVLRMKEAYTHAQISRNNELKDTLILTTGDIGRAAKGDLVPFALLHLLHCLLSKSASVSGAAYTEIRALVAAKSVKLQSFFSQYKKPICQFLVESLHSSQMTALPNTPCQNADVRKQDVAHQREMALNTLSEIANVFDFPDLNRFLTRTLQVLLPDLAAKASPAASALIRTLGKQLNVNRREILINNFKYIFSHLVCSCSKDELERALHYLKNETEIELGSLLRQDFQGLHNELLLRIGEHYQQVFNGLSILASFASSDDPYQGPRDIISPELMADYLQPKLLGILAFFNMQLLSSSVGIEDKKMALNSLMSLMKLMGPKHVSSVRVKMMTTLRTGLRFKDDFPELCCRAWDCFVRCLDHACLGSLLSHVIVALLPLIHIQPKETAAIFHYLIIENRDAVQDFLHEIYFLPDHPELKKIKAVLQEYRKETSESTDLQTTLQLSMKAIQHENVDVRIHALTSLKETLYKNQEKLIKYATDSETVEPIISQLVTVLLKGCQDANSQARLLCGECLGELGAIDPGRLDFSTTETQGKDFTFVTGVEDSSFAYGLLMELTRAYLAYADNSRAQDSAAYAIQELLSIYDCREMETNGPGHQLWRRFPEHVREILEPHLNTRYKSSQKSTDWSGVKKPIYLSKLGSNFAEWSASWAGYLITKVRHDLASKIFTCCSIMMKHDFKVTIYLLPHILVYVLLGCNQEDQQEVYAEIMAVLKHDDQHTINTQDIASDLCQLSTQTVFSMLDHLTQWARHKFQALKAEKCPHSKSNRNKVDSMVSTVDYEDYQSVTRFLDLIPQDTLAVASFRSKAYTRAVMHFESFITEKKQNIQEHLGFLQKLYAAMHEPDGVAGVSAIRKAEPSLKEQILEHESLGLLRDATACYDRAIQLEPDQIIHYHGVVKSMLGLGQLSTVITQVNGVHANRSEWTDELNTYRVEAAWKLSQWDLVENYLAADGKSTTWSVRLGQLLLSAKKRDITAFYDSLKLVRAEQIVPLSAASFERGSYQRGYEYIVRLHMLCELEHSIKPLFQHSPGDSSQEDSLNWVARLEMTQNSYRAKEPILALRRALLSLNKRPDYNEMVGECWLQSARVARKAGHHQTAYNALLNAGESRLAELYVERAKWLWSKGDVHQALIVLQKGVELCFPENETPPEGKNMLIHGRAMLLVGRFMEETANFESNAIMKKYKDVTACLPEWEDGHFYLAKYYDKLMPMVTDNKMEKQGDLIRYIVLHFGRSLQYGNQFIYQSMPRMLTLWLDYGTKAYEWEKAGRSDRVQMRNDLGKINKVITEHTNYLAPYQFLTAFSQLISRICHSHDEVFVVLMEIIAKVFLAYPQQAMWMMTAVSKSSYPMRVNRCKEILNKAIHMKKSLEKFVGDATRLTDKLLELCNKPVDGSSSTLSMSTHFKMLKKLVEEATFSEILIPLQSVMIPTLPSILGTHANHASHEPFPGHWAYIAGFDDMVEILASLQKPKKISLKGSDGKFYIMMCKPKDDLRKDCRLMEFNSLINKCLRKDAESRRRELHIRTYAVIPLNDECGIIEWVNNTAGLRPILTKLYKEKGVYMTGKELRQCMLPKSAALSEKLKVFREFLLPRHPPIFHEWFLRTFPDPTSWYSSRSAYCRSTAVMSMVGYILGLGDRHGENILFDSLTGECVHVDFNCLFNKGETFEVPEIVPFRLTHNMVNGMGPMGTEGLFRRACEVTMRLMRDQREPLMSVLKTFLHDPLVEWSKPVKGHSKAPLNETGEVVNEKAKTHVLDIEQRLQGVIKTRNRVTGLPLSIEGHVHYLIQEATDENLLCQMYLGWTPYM
T2 sequence (Q8WXE1 whole entry partner): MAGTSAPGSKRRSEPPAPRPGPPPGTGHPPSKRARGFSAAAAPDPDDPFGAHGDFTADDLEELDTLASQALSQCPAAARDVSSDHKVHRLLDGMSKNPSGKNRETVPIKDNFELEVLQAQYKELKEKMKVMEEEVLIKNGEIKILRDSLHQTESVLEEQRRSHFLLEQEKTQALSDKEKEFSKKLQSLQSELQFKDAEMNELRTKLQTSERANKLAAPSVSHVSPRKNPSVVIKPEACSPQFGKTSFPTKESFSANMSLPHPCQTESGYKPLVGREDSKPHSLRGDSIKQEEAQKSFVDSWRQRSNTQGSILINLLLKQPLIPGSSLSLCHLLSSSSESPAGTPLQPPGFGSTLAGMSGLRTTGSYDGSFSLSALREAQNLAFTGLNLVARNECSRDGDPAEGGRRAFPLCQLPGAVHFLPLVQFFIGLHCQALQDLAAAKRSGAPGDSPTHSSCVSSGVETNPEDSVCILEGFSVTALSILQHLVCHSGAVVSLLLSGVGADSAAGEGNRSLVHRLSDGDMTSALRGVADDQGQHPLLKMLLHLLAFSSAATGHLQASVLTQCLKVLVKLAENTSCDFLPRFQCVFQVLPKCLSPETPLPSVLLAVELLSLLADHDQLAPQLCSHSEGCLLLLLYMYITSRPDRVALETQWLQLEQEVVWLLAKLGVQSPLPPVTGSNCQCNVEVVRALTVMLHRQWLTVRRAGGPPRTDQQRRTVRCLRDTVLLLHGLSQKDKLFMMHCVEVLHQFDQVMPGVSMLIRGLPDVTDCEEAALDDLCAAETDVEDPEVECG
Kind of test: ATR-mediated signaling: phosphorylation of Rad17 Ser 645 and CHK1 Ser 345 in cells. It is filed as cell-based. Particulars: 1 μM and 2 μM; PC3 and MDA-MB-231 cells. How it is done: PARP inhibitor-resistant cells are increasingly dependent on ATR for survival, and ATR inhibition disrupts restored HR and fork protection pathways in PARP inhibitor resistant BRCA-deficient cancer cells. For ATR kinase in vitro assays, ATR was immunoprecipitated with 3 μg of anti-ATR antibody (Bethyl Laboratories, A300-137A) from 1 mg of cell lysate. […] The IC50 was determined by the enzyme profiling service of Eurofins Cerep (France). […] The phosphorylation of CHK1 at Ser 345 sites was used as a bio-marker of ATR-mediated signaling pathway. The phosphorylation of Rad17 at Ser 645, which is a substrate of ATR, was also examined.
ATR inhibition was assessed in C4-2B/MR cells. Considering ATM is a homologous protein of ATR, we also detected the effect of JC046 analogs on the phosphorylation of KAP1 at Ser 824 and CHK2 at Thr 68 sites, which were used as markers of ATM signaling pathway.
With `O=C(CCN1CCCC1)NC1C/C(=C\c2ccc(F)c(F)c2)C(=O)/C(=C/c2ccc(F)c(F)c2)C1` (stereo not shown) [JCS007, N-(3,5-bis((E)-3,4-difluorobenzylidene)-4-oxocyclohexyl)-3-(pyrrolidin-1-yl)propanamide], the “Olaparib induced phosphorylation of Rad17 at Ser 645 and CHK1 at Ser 345” value is listed as “inhibited”.

The same test, now with this note: compared to JC099.
Turning to `CCN(CC)CCOc1ccc(-c2ccc(C(=O)NC3C/C(=C\c4ccc(F)c(F)c4)C(=O)/C(=C/c4ccc(F)c(F)c4)C3)cc2)cc1` (stereo not shown) [JCS095, N-(3,5-Bis((E)-3,4-difluorobenzylidene)-4-oxocyclohexyl)-4′-(2-(diethylamino)ethoxy)-[1,1′-biphenyl]-4-carboxamide], the “ATR inhibition potency relative to JC099 (OLA- or UV-induced phosphorylation of Rad17 and CHK1)” value (“ATR inhibition potency relative to JC099” for short) is listed as “less ATR inhibition potencies”.
Still for that read-out and setting: to `CCN(CC)CCOc1ccc(C(=O)NC2C/C(=C\c3ccc(F)c(F)c3)C(=O)/C(=C/c3ccc(F)c(F)c3)C2)cc1C(C)=O` (stereo not shown) [JCS104, 3-Acetyl-N-(3,5-bis((E)-3,4-difluorobenzylidene)-4-oxocyclohexyl)-4-(2-(diethylamino)ethoxy)-benzamide] belongs “less ATR inhibition potencies”; to `CCN(CC)CCOc1ccc(C(=O)NC2C/C(=C\c3ccc(F)cc3)C(=O)/C(=C/c3ccc(F)cc3)C2)cc1` (stereo not shown) [JCS149, N-(3,5-Bis((E)-4-fluorobenzylidene)-4-oxocyclohexyl)-4-(2-(diethylamino)ethoxy)benzamide], “less ATR inhibition potencies”; to `CCN(CC)CCOc1ccc(C(=O)NC2C/C(=C\c3ccc(F)c(F)c3)C(=O)/C(=C/c3ccc(F)c(F)c3)C2)c(C)c1` (stereo not shown) [JCS112, N-(3,5-Bis((E)-3,4-difluorobenzylidene)-4-oxocyclohexyl)-4-(2-(diethylamino)ethoxy)-2-methyl-benzamide], “less ATR inhibition potencies”.
As for `CCN1CCC[C@H]1CNc1ccc(C(=O)NC2C/C(=C\c3ccc(F)c(F)c3F)C(=O)/C(=C/c3ccc(F)c(F)c3F)C2)cc1` (stereo partly drawn) [JCS157, 4-((((S)-1-Ethylpyrrolidin-2-yl)methyl)amino)-N-(4-oxo-3,5-bis((E)-2,3,4-trifluorobenzylidene)-cyclohexyl)benzamide], the “ATR inhibition potency relative to JC099” value is recorded as “less ATR inhibition potencies”.
Still for that read-out and setting: to `O=C1/C(=C/c2ccc(F)c(F)c2)CC(NC(=O)c2ccc3cc(OCCN4CCCCC4)ccc3c2)C/C1=C\c1ccc(F)c(F)c1` (stereo not shown) [JCS097, N-(3,5-Bis((E)-3,4-difluorobenzylidene)-4-oxocyclohexyl)-6-(2-(piperidin-1-yl)ethoxy)-2-naphth-amide] belongs “less ATR inhibition potencies”; to `O=C1/C(=C/c2ccc(F)c(F)c2)CC(NC(=O)c2cnc(NCCN3CCCC3)cn2)C/C1=C\c1ccc(F)c(F)c1` (stereo not shown) [JCS093, N-(3,5-Bis((E)-3,4-difluorobenzylidene)-4-oxocyclohexyl)-5-((2-(pyrrolidin-1-yl)ethyl)amino)pyr-azine-2-carboxamide], “less ATR inhibition potencies”.
Take `O=C1/C(=C/c2ccc(F)c(F)c2)CC(NC(=O)c2cnc(NCCN3CCCC3)c([N+](=O)[O-])c2)C/C1=C\c1ccc(F)c(F)c1` (stereo not shown) [JCS092, N-(3,5-Bis((E)-3,4-difluorobenzylidene)-4-oxocyclohexyl)-5-nitro-6-((2-(pyrrolidin-1-yl)ethyl)ami-no)nicotinamide]: the “ATR inhibition potency relative to JC099” value is listed as “their potencies were close to JC099”.
Regarding `CCN(CC)CCOc1ccc2cc(C(=O)NC3C/C(=C\c4ccc(F)c(F)c4)C(=O)/C(=C/c4ccc(F)c(F)c4)C3)ccc2c1` (stereo not shown) [JCS098, N-(3,5-Bis((E)-3,4-difluorobenzylidene)-4-oxocyclohexyl)-6-(2-(diethylamino)ethoxy)-2-naphtha-mide], the “ATR inhibition potency relative to JC099” value is “less ATR inhibition potencies”.
With `N#Cc1cc(NCCN2CCCC2)ccc1C(=O)NC1C/C(=C\c2ccc(F)c(F)c2)C(=O)/C(=C/c2ccc(F)c(F)c2)C1` (stereo not shown) [JCS0091], the “ATR inhibition potency relative to JC099” value is listed as “their potencies were close to JC099”.
On the same count and under the same terms, to `CCN1CCC[C@@H]1CNc1ccc(C(=O)NC2C/C(=C\c3ccc(F)c(F)c3)C(=O)/C(=C/c3ccc(F)c(F)c3)C2)cc1` (stereo partly drawn) [JCS066, N-(3,5-Bis((E)-3,4-difluorobenzylidene)-4-oxocyclohexyl)-4-((((R)-1-ethylpyrrolidin-2-yl)methyl)-amino)benzamide] belongs “greater ATR inhibition potential”; to `O=C1/C(=C/c2ccc(F)c(F)c2)CC(NC(=O)c2ccc(OCCN3CCCCC3)nc2)C/C1=C\c1ccc(F)c(F)c1` (stereo not shown) [JCS116, N-(3,5-Bis((E)-3,4-difluorobenzylidene)-4-oxocyclohexyl)-6-(2-(piperidin-1-yl)ethoxy)nicotinamide], “less ATR inhibition potencies”; to `CCN(CC)CCOc1ccc(C(=O)NC2C/C(=C\c3ccc(F)c(F)c3)C(=O)/C(=C/c3ccc(F)c(F)c3)C2)cn1` (stereo not shown) [JCS115, N-(3,5-Bis((E)-3,4-difluorobenzylidene)-4-oxocyclohexyl)-6-(2-(diethylamino)ethoxy)nicotinamide], “less ATR inhibition potencies”.
For `COCCN(CCOC)CCOc1ccc(C(=O)NC2C/C(=C\c3cc(F)c(F)c(OC)c3)C(=O)/C(=C/c3cc(F)c(F)c(OC)c3)C2)cc1` (stereo not shown) [JCS153, N-(3,5-Bis((E)-3,4-difluoro-5-methoxybenzylidene)-4-oxocyclohexyl)-4-(2-(bis(2-methoxyethyl)ami-no)ethoxy)benzamide], the “ATR inhibition potency relative to JC099” value is listed as “greater ATR inhibition potential”.
